Results from patent US10160755B2 (Plexxikon Inc., priority 2015, dated 2018).

Biological target: T1, FLT3-ITD (Homo sapiens, UniProt P36888)
T1 construct: FLT3-ITD; Invitrogen #PV6190
T1 sequence (P36888 1-993): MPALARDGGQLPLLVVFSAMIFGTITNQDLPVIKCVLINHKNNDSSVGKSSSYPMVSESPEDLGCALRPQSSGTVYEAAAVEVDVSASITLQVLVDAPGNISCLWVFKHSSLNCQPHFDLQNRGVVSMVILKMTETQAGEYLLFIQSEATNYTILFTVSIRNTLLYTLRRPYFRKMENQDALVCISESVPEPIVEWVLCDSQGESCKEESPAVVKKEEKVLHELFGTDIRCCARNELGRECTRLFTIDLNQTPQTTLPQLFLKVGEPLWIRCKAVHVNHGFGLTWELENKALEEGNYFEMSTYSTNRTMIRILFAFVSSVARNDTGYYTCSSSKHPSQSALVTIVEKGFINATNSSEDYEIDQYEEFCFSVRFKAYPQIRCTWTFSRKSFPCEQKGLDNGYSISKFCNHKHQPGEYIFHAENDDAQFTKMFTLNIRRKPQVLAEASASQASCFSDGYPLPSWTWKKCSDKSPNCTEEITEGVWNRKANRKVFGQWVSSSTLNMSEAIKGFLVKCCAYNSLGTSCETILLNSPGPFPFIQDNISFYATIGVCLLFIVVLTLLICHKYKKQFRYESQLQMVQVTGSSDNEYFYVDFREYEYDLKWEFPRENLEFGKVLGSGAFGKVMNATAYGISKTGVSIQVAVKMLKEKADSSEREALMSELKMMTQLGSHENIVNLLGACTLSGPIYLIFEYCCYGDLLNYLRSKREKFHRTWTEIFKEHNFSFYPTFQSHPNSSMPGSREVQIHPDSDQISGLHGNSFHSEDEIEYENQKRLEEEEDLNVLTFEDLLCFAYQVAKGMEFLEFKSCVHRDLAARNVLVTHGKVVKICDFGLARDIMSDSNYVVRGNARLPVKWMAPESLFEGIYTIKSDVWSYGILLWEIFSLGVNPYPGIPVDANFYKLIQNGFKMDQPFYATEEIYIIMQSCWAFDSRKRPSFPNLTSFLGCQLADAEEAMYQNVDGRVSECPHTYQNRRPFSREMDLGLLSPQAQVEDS
Assay: FLT3-ITD biochemical kinase assay (AlphaScreen)
Text: (§1) In order to determine the effect of compounds on FLT3 catalytic activity, kinase assays using recombinant enzymes and AlphaScreen® technology have been established. When the kinases are catalytically active, they phosphorylate a biotinylated peptide substrate on tyrosine residues. Using AlphaScreen® technology, the ability of the compounds to affect the catalytic activity of the kinases can be measured quantitatively. The peptide substrate is immobilized by the AlphaScreen® Streptavidin Donor beads and, upon phosphorylation by a tyrosine kinase, can bind to AlphaScreen® Anti-Phosphotyrosine (PY20) Acceptor beads. Upon excitation of these beads with laser light at 680 nm, singlet oxygen is produced. This singlet oxygen is rapidly quenched, unless the AlphaScreen® Anti-Phosphotyrosine (PY20) Acceptor beads are in close proximity, in which case a proximity signal can be measured at 580 nm. In the presence of catalytic activity, there is a very strong proximity signal. Selective kinase inhibitors affect a decrease in this proximity signal through a decrease in tyrosine phosphorylation of the peptide substrate.
(§2) Substrate • Poly (Glu4-Tyr) Peptide, biotin conjugate [Biotin-GG(EEEEY)10EE (SEQ ID NO: 4)] • UBI/Millipore #12-440 • Final concentration=30 nM
(§3) Adenosine Triphosphate (ATP) • Sigma #A-3377 • Final concentration for IC50 determination=10 μM (FLT3-D835Y) or 100 μM (FLT3 or FLT3-ITD) • Detection Reagent • AlphaScreen® Phosphotyrosine (PY20) Assay Kit • Perkin-Elmer #6760601M • Final concentration=10 μg/mL
(§4) Centrifuge 1 minute, shake to mix, and incubate as follows:
(§5) • Mix Streptavidin Donor beads at 6× final concentration in Stop/Detection buffer. • Add 5 μL Streptavidin Donor beads to the reaction plate. Centrifuge 1 minute, shake to mix, and incubate at room temperature for 20 minutes. • Mix Anti-Phosphotyrosine (PY20) Acceptor beads at 6× final concentration in Stop/Detection buffer. • Add 5 μL Anti-Phosphotyrosine (PY20) beads to the reaction plate. • Centrifuge 1 minute, shake to mix, and incubate at room temperature for 60 minutes. • Read plate on Wallac EnVision™ 2103 Multilabel Reader. In Vivo Model System Testing

IC50	SMILES
0.0001 to 1 µM	CC(C)(C)n1cnc2ccc(-c3c[nH]c4ncc(-c5cnc(C(=O)O)nc5)cc34)cc21 [P-402, 5-[3-(3-tert-butylbenzimidazol-5-yl)-1H-pyrrolo[2,3-b]pyridin-5-yl]pyrimidine-2-carboxylic acid]
0.0001 to 1 µM	CC(C)(C)n1cnc2ccc(-c3c[nH]c4ncc(-c5cccc(OCC6CC6)c5)cc34)cc21 [P-373, 1-tert-butyl-6-[5-[3-(cyclopropylmethoxy)phenyl]-1H-pyrrolo[2,3-b]pyridin-3-yl]benzimidazole]
0.0001 to 1 µM	CC(C)(C)n1cnc2ccc(-c3c[nH]c4ncc(-c5cnc(NC6CC6)nc5)cc34)cc21 [P-400, 5-[3-(3-tert-butylbenzimidazol-5-yl)-1H-pyrrolo[2,3-b]pyridin-5-yl]-N-cyclopropyl-pyrimidin-2-amine]
0.0001 to 1 µM	COc1ccc(-c2cnc3[nH]cc(-c4ccc5ncn(C(C)(C)C)c5c4)c3c2)cc1NS(C)(=O)=O [P-370, N-[5-[3-(3-tert-butylbenzimidazol-5-yl)-1H-pyrrolo[2,3-b]pyridin-5-yl]-2-methoxy-phenyl]methanesulfonamide]
0.0001 to 1 µM	COCCOc1cncc(-c2cnc3[nH]cc(-c4ccc5ncn(C(C)(C)C)c5c4)c3c2)c1 [P-368, 1-tert-butyl-6-[5-[5-(2-methoxyethoxy)-3-pyridyl]-1H-pyrrolo[2,3-b]pyridin-3-yl]benzimidazole]
0.0001 to 1 µM	Cc1cc(-c2cnc3[nH]cc(-c4ccc5ncn(C(C)(C)C)c5c4)c3n2)ccn1 [P-403, 7-(3-tert-butylbenzimidazol-5-yl)-2-(2-methyl-4-pyridyl)-5H-pyrrolo[2,3-b]pyrazine]
0.0001 to 1 µM	Cc1cc(-c2cnc3[nH]cc(-c4ccc5ncn(C(C)(C)C)c5c4)c3c2)cnc1F [P-394, 1-tert-butyl-6-[5-(6-fluoro-5-methyl-3-pyridyl)-1H-pyrrolo[2,3-b]pyridin-3-yl]benzimidazole]
0.0001 to 1 µM	CC(C)(C)n1cnc2ccc(-c3c[nH]c4ncc(-c5cccc(OCC(=O)O)c5)cc34)cc21 [P-374, 2-[3-[3-(3-tert-butylbenzimidazol-5-yl)-1H-pyrrolo[2,3-b]pyridin-5-yl]phenoxy]acetic acid]

Biological target: T2, FLT3-D835Y (Homo sapiens, UniProt P36888, D835Y)
T2 construct: purchased Invitrogen PV3967
T2 sequence (P36888 27-993 D835Y): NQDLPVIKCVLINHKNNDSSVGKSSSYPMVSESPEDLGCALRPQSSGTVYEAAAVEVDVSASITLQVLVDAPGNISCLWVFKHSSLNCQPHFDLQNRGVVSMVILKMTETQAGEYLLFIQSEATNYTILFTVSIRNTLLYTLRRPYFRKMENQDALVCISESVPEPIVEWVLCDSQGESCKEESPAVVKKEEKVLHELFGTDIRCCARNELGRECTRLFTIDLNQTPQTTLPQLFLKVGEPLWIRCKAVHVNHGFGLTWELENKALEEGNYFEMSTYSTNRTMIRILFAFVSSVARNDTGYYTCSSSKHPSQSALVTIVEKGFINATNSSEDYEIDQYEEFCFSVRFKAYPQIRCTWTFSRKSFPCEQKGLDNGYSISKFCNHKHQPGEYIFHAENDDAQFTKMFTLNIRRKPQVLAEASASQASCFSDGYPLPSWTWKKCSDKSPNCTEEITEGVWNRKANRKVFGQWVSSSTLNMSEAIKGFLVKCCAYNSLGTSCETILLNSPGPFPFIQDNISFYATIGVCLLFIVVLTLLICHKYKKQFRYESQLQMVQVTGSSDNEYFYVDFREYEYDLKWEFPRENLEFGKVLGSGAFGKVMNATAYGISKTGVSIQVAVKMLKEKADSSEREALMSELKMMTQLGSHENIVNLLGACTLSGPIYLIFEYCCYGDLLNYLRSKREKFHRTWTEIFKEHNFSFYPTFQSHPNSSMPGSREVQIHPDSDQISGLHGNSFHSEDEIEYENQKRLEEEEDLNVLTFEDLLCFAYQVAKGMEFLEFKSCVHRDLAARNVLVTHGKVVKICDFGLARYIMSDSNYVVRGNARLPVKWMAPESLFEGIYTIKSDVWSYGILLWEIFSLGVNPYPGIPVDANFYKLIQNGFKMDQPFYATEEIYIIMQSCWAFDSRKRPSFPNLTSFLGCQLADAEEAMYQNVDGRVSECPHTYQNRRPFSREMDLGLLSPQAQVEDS
Assay: FLT3-D835Y biochemical kinase assay (AlphaScreen)
Text: as §1, §2, §3, §4, §5

SMILES	IC50
O=S(=O)(c1cccc(-c2cnc3[nH]cc(-c4ccc5ncsc5c4)c3n2)c1)N1CCCC1 [P-171, 6-[2-(3-pyrrolidin-1-ylsulfonylphenyl)-5H-pyrrolo[2,3-b]pyrazin-7-yl]-1,3-benzothiazole]	0.0001 to 1 µM
Cn1cc(-c2cnc3[nH]cc(-c4ccc5ncsc5c4)c3n2)ccc1=O [P-182, 5-[7-(1,3-benzothiazol-6-yl)-5H-pyrrolo[2,3-b]pyrazin-2-yl]-1-methyl-pyridin-2-one]	0.0001 to 1 µM
CC(C)(C)n1cnc2ccc(-c3c[nH]c4ncc(NS(=O)(=O)c5cccc(C#N)c5)cc34)cc21 [P-233, N-[3-(3-tert-butylbenzimidazol-5-yl)-1H-pyrrolo[2,3-b]pyridin-5-yl]-3-cyano-benzenesulfonamide]	0.0001 to 1 µM
O=S(=O)(c1ccc(-c2cnc3[nH]cc(-c4ccc5ncsc5c4)c3n2)cc1)N1CCCC1 [P-160, 6-[2-(4-pyrrolidin-1-ylsulfonylphenyl)-5H-pyrrolo[2,3-b]pyrazin-7-yl]-1,3-benzothiazole]	0.0001 to 1 µM
COc1cc(-c2cnc3[nH]c(C)c(-c4ccc5ncn(C)c5c4)c3c2)ccn1 [P-112, 5-(2-methoxy-4-pyridyl)-2-methyl-3-(3-methylbenzimidazol-5-yl)-1H-pyrrolo[2,3-b]pyridine]	0.0001 to 1 µM
Cn1cnc2ccc(-c3c[nH]c4ncc(-c5ccc(Cl)c(C#N)c5)cc34)cc21 [P-140, 2-chloro-5-[3-(3-methylbenzimidazol-5-yl)-1H-pyrrolo[2,3-b]pyridin-5-yl]benzonitrile]	0.0001 to 1 µM
COc1cnc2[nH]cc(-c3ccc4[nH]ncc4c3)c2c1 [P-003, 3-(1H-indazol-5-yl)-5-methoxy-1H-pyrrolo[2,3-b]pyridine]	1 to 10 µM
CC(C)S(=O)(=O)Nc1cccc(-c2cnc3[nH]cc(-c4ccc5ncsc5c4)c3n2)c1 [P-184, N-[3-[7-(1,3-benzothiazol-6-yl)-5H-pyrrolo[2,3-b]pyrazin-2-yl]phenyl]propane-2-sulfonamide]	0.0001 to 1 µM

The next lines start with the values.

IC50	SMILES
0.0001 to 1 µM	COc1cc(-c2cnc3[nH]cc(-c4ccc5ncn(-c6ccc(F)cc6)c5c4)c3n2)cc(OC)n1 [P-205, 2-(2,6-dimethoxy-4-pyridyl)-7-[3-(4-fluorophenyl)benzimidazol-5-yl]-5H-pyrrolo[2,3-b]pyrazine]
0.0001 to 1 µM	COc1cc(-c2cnc3[nH]cc(-c4ccc5ncsc5c4)c3n2)ccc1C#N [P-183, 4-[7-(1,3-benzothiazol-6-yl)-5H-pyrrolo[2,3-b]pyrazin-2-yl]-2-methoxy-benzonitrile]
0.0001 to 1 µM	N#Cc1cc(-c2cnc3[nH]cc(-c4ccc5ncn(-c6ccc(F)cc6)c5c4)c3c2)ccc1F [P-209, 2-fluoro-5-[3-[3-(4-fluorophenyl)benzimidazol-5-yl]-1H-pyrrolo[2,3-b]pyridin-5-yl]benzonitrile]
0.0001 to 1 µM	COc1cc(-c2cnc3[nH]cc(-c4ccc5ncsc5c4)c3n2)cc(OC)n1 [P-172, 6-[2-(2,6-dimethoxy-4-pyridyl)-5H-pyrrolo[2,3-b]pyrazin-7-yl]-1,3-benzothiazole]
0.0001 to 1 µM	COc1cc(-c2cnc3[nH]cc(-c4ccc5ncn(-c6ccc(F)cc6)c5c4)c3c2)cc(OC)n1 [P-198, 5-(2,6-dimethoxy-4-pyridyl)-3-[3-(4-fluorophenyl)benzimidazol-5-yl]-1H-pyrrolo[2,3-b]pyridine]
0.0001 to 1 µM	Cn1cnc2ccc(-c3c[nH]c4ncc(-c5ccc(S(=O)(=O)N6CCCC6)cc5)nc34)cc21 [P-148, 7-(3-methylbenzimidazol-5-yl)-2-(4-pyrrolidin-1-ylsulfonylphenyl)-5H-pyrrolo[2,3-b]pyrazine]
